Patent publication US20210169077A1, “METHOD FOR IMPROVING SEED GERMINATION AND/OR PLANT TOLERANCE TO ENVIRONMENTAL STRESS” (DANSTAR FERMENT AG, priority 2017, published 2021)
Values joined by “and” are separate entries in the source; they are usually repeats but may differ in a detail not shown here. Equal values may be shown once.

How the values were obtained:
Type in all cases: in vivo
[1] = tested on: corn seeds of the variety LG 32.58; assay: Internal glycine-betaine concentration in corn seeds after foliar application, variety LG 32.58 (field trial, 1H-NMR)
Description: (§1) The field trial was performed with two different varieties of corn: the LG 32.58 variety and the Casey variety.
(§2) To prevent auto-fertilization during the corn seed production, the male reproductive parts of the female line were removed prior to the time of pollen shed.
[…] Each repetition consists of 18 plants. Control plants were treated with water.
(§3) Seeds (200) were collected at maturity. Seeds were ground using a ball mill and extracted with ethanol. Samples were evaporated to dryness and dissolved in deuterium oxide (D20) (50 mg/ml). 1H-NMR analysis (Bruker, at 500 MHz) was performed using 3-(trimethylsilyl)-1-propane sulfonate sodium salt (DSS) as the internal standard. Values in ppm assigned to NMR signals are chemical shifts of the 9 protons which give the signal, for the glycine-betaine, at 3.251 ppm. A total of three extractions were performed on each sample.

[2] = tested on: corn seeds of the variety Casey; assay: Internal glycine-betaine concentration in corn seeds after foliar application, variety Casey (field trial, 1H-NMR); details: Greenstim sprayed on female line leaves at grain development stage, 4 kg/hectare, seeds collected at maturity, Rep 1-3, letter b differs from water control (p < 0.05)
Description: as §1, §2
(§4) The commercial Greenstim® (Lallemand) formulation was sprayed to the female line leaves during grain development stage at the equivalent of 4 kg/hectare. Each repetition consists of 18 plants. Control plants were treated with water.
as §3

corn seed Variety 1 = assay: Internal concentration of glycine-betaine (mg/kg) in corn seed, Variety 1 female lines; details: for Percentage increase in internal GB concentration: versus plants treated with water
Description: as §2, §4, §3

corn seed = assay: Effect of cold temperature on corn seed germination
Description: Two hundred seeds of each treatment (plants treated with water and plants treated with glycine-betaine) were planted onto moistened sand. Samples were placed into a germination chamber at 10° C. for a period of 7 days. Samples were then transferred to a germination chamber set to 25° C. for 5 days. The experiment was conducted with a variety of seeds with increased cold tolerance compared to more traditional seed varieties. The germination rate of standard seeds after a cold germination test is between 50 to 70%.

C[N+](C)(C)CC(=O)[O-] [GB, N,N,N-trimethylglycine]
GB concentration, GB (plants treated with GB) ([1]; corn variety LG 32.58, Greenstim sprayed on female line leaves at grain development stage, 4 kg/hectare, seeds collected at maturity, Rep 1-3, letter b differs from water control (p < 0.05)): 41.18b μg · g^−1 MS and 37.71b μg · g^−1 MS and 38.53b μg · g^−1 MS | Internal glycine-betaine content of the seeds compared to untreated seeds ([1]; summary of Tables 1 to 4, plants sprayed at the flowering stage): significantly higher | GB concentration, GB (plants treated with GB) [2]: 79.19b μg · g^−1 MS and 79.33b μg · g^−1 MS and 83.91b μg · g^−1 MS | Internal concentration of glycine-betaine in corn seed, Mean GB (plants treated with GB) (corn seed Variety 1; Variety 1-female 1, Rep 1): 6.67 mg/kg | Percentage increase in internal GB concentration (corn seed Variety 1; Variety 1-female 1, Rep 1): 53% | Internal concentration of glycine-betaine in corn seed, Mean GB (plants treated with GB) (corn seed Variety 1; Variety 1-female 2, Rep 2): 5.19 mg/kg | Percentage increase in internal GB concentration (corn seed Variety 1; Variety 1-female 2, Rep 2): 1135% | Internal concentration of glycine-betaine in corn seed, Mean GB (plants treated with GB) (corn seed Variety 1; Variety 1-female 3, Rep 3): 6.89 mg/kg | Percentage increase in internal GB concentration (corn seed Variety 1; Variety 1-female 3, Rep 3): 15% | Seed germination percentage (plants treated with GB) (corn seed; Variety-female 3, 200 seeds on moistened sand, 10° C. for 7 days then 25° C. for 5 days): 86.61 | Percentage increase in germination (corn seed; Variety-female 3, after cold treatment, versus seeds from plants treated with water): 2.1% | Seed germination percentage after cold treatment compared with untreated seeds (corn seed; summary of Table 5, seeds with increased internal content of glycine-betaine): significantly better seed germination percentage
